In patent US11993593B2, “Griseofulvin compound and pharmaceutical use thereof” (Daiichi Sankyo Company, Limited, priority 2017, dated 2024):

What follows are compounds tested on Male ddY mice (assay: Forced swim test). Details: Mus musculus, oral, dose 10 mg/kg, 4 hours after administration, immobility time measured for six minutes, ratio to control group (0.5% methylcellulose).
Format: in vivo
Experimental: (Test Example) Forced Swim Test
Male ddY mice (4 weeks old at the time of evaluation) were used for the test in groups of 10 mice. The mice were placed in a water bath (inner diameter 14.5 cm, height 20 cm, water temperature about 24° C.) with water filled to a height of about 15 cm, and a swimming trial was carried out for 15 minutes (training trial). The next day, mice were orally administered with a suspension of each compound (10 mL/kg, solvent: 0.5% methylcellulose aqueous solution) was orally administered to the mice, and four hours later, they were placed in the water bath. Immobility time (sec) was measured for six minutes immediately after that, and the ratio of the average immobility time of each compound administration group with respect to the average immobility time of a control group (10 mL/kg administration of 0.5% methylcellulose aqueous solution without a compound) was calculated.
In the case of `COCCOc1cc(OC)c2c(c1Cl)O[C@]1(C2=O)C(OC)=CC(=O)C[C@H]1C` [Example 2, (2S,5′R)-7-chloro-3′,4-dimethoxy-6-(2-methoxyethoxy)-5′-methyl-spiro [benzofuran-2,4′-cyclohex-2-ene]-1′,3-dione], the response vs control in vivo at 10 mg/kg is reported as 71%.
For `COC1=CC(=O)C[C@@H](C)[C@]12Oc1c(Cl)c(-c3ccn(C)n3)cc(OC)c1C2=O` [Example 3, (2S,5′R)-7-chloro-3′,4-dimethoxy-5′-methyl-6-(1-methylpyrazol-3-yl) spiro [benzofuran-2,4′-cyclohex-2-ene]-1′,3-dione], the response vs control in vivo at 10 mg/kg was 84%.
Work on `CCn1ccc(-c2cc(OC)c3c(c2Cl)O[C@]2(C3=O)C(OC)=CC(=O)C[C@H]2C)n1` [Example 4, (2S,5′R)-7-chloro-6-(1-ethylpyrazol-3-yl)-3′,4-dimethoxy-5′-methyl-spiro [benzofuran-2,4′-cyclohex-2-ene]-1′,3-dione] yielded a response vs control in vivo at 10 mg/kg of 61%.
Compound `COC1=CC(=O)C[C@@H](C)[C@]12Oc1c(Cl)c(-c3nnc(C)o3)cc(OC)c1C2=O` [Example 5, (2S,5′R)-7-chloro-3′,4-dimethoxy-5′-methyl-6-(5-methyl-1,3,4-oxadiazol-2-yl) spiro [benzofuran-2,4′-cyclohex-2-ene]-1′,3-dione] has a response vs control in vivo at 10 mg/kg of 62%.
With `COC1=CC(=O)C[C@@H](C)[C@]12Oc1c(Cl)c(-c3nc(C)no3)cc(OC)c1C2=O` [Example 6, (2S,5′R)-7-chloro-3′,4-dimethoxy-5′-methyl-6-(3-methyl-1,2,4-oxadiazol-5-yl) spiro [benzofuran-2,4′-cyclohex-2-ene]-1′,3-dione] the response vs control in vivo at 10 mg/kg was 67%.
Compound `CCc1nnc(-c2cc(OC)c3c(c2Cl)O[C@]2(C3=O)C(OC)=CC(=O)C[C@H]2C)o1` [Example 17, (2S,5′R)-7-chloro-6-(5-ethyl-1,3,4-oxadiazol-2-yl)-3′,4-dimethoxy-5′-methyl-spiro [benzofuran-2,4′-cyclohex-2-ene]-1′,3-dione] has a response vs control in vivo at 10 mg/kg of 72%.
Work on `COC1=CC(=O)C[C@@H](C)[C@]12Oc1c(Cl)c(-c3nnc(C4CCOCC4)o3)cc(OC)c1C2=O` [Example 18, (2S,5′R)-7-chloro-3′,4-dimethoxy-5′-methyl-6-(5-tetrahydropyran-4-yl-1,3,4-oxadiazol-2-yl) spiro [benzofuran-2,4′-cyclohex-2-ene]-1′,3-dione] yielded a response vs control in vivo at 10 mg/kg of 85%.
With `COC1=CC(=O)C[C@@H](C)[C@]12Oc1c(Cl)c(-c3nnc([C@H](C)OC)o3)cc(OC)c1C2=O` [Example 21, (2S,5′R)-7-chloro-3′,4-dimethoxy-6-[5-[(1S)-1-methoxyethyl]-1,3,4-oxadiazol-2-yl]-5′-methyl-spiro [benzofuran-2,4′-cyclohex-2-ene]-1′,3-dione] the response vs control in vivo at 10 mg/kg was 87%.
Work on `CCOc1cc(-c2nnc(C)o2)c(Cl)c2c1C(=O)[C@@]1(O2)C(OC)=CC(=O)C[C@H]1C` [Example 22, (2S,5′R)-7-chloro-4-ethoxy-3′-methoxy-5′-methyl-6-(5-methyl-1,3,4-oxadiazol-2-yl) spiro [benzofuran-2,4′-cyclohex-2-ene]-1′,3-dione] yielded a response vs control in vivo at 10 mg/kg of 88%.
Compound `COC1=CC(=O)C[C@@H](C)[C@]12Oc1c(Cl)c(-c3nc(C(C)OC)no3)cc(OC)c1C2=O` (stereo partly drawn) [Example 24, (2S,5′R)-7-chloro-3′,4-dimethoxy-6-[3-(1-methoxyethyl)-1,2,4-oxadiazol-5-yl]-5′-methyl-spiro [benzofuran-2,4′-cyclohex-2-ene]-1′,3-dione] has a response vs control in vivo at 10 mg/kg of 65%.
With `COC1=CC(=O)C[C@@H](C)[C@]12Oc1c(Cl)c(-c3nc(C(C)(C)O)no3)cc(OC)c1C2=O` [Example 25, (2S,5′R)-7-chloro-6-[3-(1-hydroxy-1-methyl-ethyl)-1,2,4-oxadiazol-5-yl]-3′,4-dimethoxy-5′-methyl-spiro [benzofuran-2,4′-cyclohex-2-ene]-1′,3-dione] the response vs control in vivo at 10 mg/kg was 58%.
In the case of `COC1=CC(=O)C[C@@H](C)[C@]12Oc1c(Cl)c(-c3ccn[nH]3)cc(OC)c1C2=O` [Example 26, (2S,5′R)-7-chloro-3′,4-dimethoxy-5′-methyl-6-(1H-pyrazol-5-yl) spiro [benzofuran-2,4′-cyclohex-2-ene]-1′,3-dione], the response vs control in vivo at 10 mg/kg is reported as 72%.
For `COC1=CC(=O)C[C@@H](C)[C@]12Oc1c(Cl)c(C3=NOC4(CCOCC4)C3)cc(OC)c1C2=O` [Example 28, (2S,5′R)-7-chloro-6-(1,8-dioxa-2-azaspiro [4.5]dec-2-en-3-yl)-3′,4-dimethoxy-5′-methyl-spiro [benzofuran-2,4′-cyclohex-2-ene]-1′,3-dione], the response vs control in vivo at 10 mg/kg was 80%.
For `COC1=CC(=O)C[C@@H](C)[C@]12Oc1c(Cl)c(-c3cnc(OC)nc3)cc(OC)c1C2=O` [Example 30, (2S,5′R)-7-chloro-3′,4-dimethoxy-6-(2-methoxypyrimidin-5-yl)-5′-methyl-spiro [benzofuran-2,4′-cyclohex-2-ene]-1′,3-dione], the response vs control in vivo at 10 mg/kg was 70%.
`COC1=CC(=O)C[C@@H](C)[C@]12Oc1c(Cl)c(-c3ccc(OC)nc3)cc(OC)c1C2=O` [Example 31, (2S,5′R)-7-chloro-3′,4-dimethoxy-6-(6-methoxy-3-pyridyl)-5′-methyl-spiro [benzofuran-2,4′-cyclohex-2-ene]-1′,3-dione] showed a response vs control in vivo at 10 mg/kg of 68%.

Same assay, conditions: Mus musculus, oral, dose 100 mg/kg, 4 hours after administration, immobility time measured for six minutes, ratio to control group (0.5% methylcellulose)
Work on `COC1=CC(=O)C[C@@H](C)[C@]12Oc1c(Cl)c(OC)cc(OC)c1C2=O` [Griseofulvin, (2S,5′R)-7-chloro-3′,4,6-trimethoxy-5′-methyl-spiro [benzofuran-2,4′-cyclohex-2-ene]-1′,3-dione] yielded a response vs control in vivo at 100 mg/kg of 72%.
